Reference: publication PMC9841532, “Exploring the Effect of Halogenation in a Series of Potent and Selective A2B Adenosine Receptor Antagonists” (Journal of Medicinal Chemistry, 2022)
Converted amounts (≈) assume the structure as drawn. Where two headings read alike, the source gives them in different places.

How the values were obtained:
[1] = biological target: T1, hA2BAR (Homo sapiens, UniProt P29275); test: Radioligand binding competition, [3H]DPCPX, membranes from HEK-293-A2B cells; design: Exp. dG: unit not given here; conditions: for Exp. dG: experimental binding free energy, Supplementary Table S3, unit not given (errors in kcal/mol); for Ki: displacement of specific [3H]DPCPX binding in human HEK-293 cells, n = 3, read-out: Ki hA2B
T1 construct: host or cells: HEK-293 (HEK-293-A2B) cell membranes
T1 sequence (P29275 1-332): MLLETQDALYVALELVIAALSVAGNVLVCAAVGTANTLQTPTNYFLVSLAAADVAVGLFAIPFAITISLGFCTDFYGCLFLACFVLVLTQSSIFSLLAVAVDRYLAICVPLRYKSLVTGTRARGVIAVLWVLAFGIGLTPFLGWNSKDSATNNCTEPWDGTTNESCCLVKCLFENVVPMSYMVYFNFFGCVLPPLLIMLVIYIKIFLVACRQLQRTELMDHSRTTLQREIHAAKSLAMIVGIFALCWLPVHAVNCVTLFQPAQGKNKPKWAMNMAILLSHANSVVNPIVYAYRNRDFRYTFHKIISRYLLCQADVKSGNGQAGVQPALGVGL
In short: (§1)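 Racemates, plus selected enantiomers after chiral resolution, were tested at 25 °C, with a 60 min incubation for one subtype and 30 min for others. Non-specific binding was defined with 10 μM or 100 μM R-PIA. Bound radioactivity was counted after washing and filtration.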

[2] = biological target: T2, hA1AR (Homo sapiens, UniProt P30542); conditions: prototype series, [3H]DPCPX, human CHO cells ref 30, 31; cited from earlier work
T2 sequence (P30542 1-326): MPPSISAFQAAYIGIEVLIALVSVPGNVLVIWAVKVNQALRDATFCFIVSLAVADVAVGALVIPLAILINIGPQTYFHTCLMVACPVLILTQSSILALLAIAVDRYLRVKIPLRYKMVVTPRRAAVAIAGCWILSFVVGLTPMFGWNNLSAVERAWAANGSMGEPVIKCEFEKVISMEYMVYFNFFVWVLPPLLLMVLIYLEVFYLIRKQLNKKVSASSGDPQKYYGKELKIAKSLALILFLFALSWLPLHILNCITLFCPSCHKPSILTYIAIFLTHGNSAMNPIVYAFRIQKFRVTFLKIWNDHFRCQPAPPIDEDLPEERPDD

[3] = biological target: T3, hA2AAR (Homo sapiens, UniProt P29274); conditions: prototype series, human HeLa cells ref 30, 31; cited from earlier work
T3 construct: expressed in transfected cells; host or cells: HeLa (HeLa-A2A) cell membranes
T3 sequence (P29274 whole entry): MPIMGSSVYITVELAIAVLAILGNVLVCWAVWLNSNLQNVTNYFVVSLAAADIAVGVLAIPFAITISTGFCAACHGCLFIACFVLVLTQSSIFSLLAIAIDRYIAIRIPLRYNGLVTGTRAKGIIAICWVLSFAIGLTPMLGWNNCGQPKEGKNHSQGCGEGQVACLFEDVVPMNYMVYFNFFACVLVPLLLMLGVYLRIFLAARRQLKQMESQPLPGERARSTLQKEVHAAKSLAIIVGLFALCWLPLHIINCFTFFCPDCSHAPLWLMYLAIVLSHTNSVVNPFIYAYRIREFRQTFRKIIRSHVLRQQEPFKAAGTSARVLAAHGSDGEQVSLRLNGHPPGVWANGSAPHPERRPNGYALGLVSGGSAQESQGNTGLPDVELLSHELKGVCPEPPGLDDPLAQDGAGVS

[4] = biological target: T4, hA3AR (Homo sapiens, UniProt P0DMS8); conditions: prototype series, [3H]NECA, human HeLa cells ref 30, 31; cited from earlier work
T4 construct: expressed in transfected cells; host or cells: HeLa (HeLa-A3) cell membranes
T4 sequence (P0DMS8 1-318): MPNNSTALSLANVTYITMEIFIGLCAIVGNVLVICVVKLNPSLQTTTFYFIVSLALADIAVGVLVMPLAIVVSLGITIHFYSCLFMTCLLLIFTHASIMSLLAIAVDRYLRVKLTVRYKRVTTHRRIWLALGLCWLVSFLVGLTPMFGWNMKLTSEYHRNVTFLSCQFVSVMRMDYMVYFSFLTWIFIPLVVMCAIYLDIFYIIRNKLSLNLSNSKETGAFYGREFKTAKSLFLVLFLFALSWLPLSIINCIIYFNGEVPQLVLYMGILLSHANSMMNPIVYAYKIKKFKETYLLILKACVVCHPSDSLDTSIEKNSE

[5] = biological target: A2B; conditions: Figure 1, representative A2B antagonists ref 28-32; read-out: Ki; cited from earlier work
[6] = biological target: T2, hA1AR; test: Radioligand binding competition, [3H]DPCPX, membranes from CHO-A1 cells; conditions: for % at 1 μM hA1 (percentage displacement of specific binding): [3H]DPCPX, human CHO cells, n = 2
In short: as §1

[7] = biological target: T3, hA2AAR; test: Radioligand binding competition, [3H]ZM241385, membranes from HeLa-A2A cells; conditions: 1 μM, [3H]ZM241385, human HeLa cells, n = 2
In short: as §1

[8] = biological target: T4, hA3AR; test: Radioligand binding competition, [3H]NECA, membranes from HeLa-A3 cells; conditions: 1 μM, [3H]NECA, human HeLa cells, n = 2
In short: as §1

[9] = Solubility determination (nephelometry); format: physicochemical; conditions: 1:99 DMSO/PSB buffer, PBS pH 7, 37 °C
Procedure: The solubility of selected compounds was evaluated by following a previously described method.[31] A 10 mM stock solution of the compound was serially diluted in 100% DMSO, and 2.5 μL of this solution was added to a 384-well UV-transparent plate (Greiner) containing 47.5 μL of PBS (pH = 7). The plate was incubated at 37 °C for 4 h, and the light scattering was measured in a NEPHELOstar Plus reader (BMG LABTECH). The data was fitted to a segmented linear regression for measuring the compound solubility.

[10] = Human microsomal stability; format: in vitro ADME; conditions: human microsomes; for microsomal stability percent (percentage remanent): sampling time 60 min; for microsomal CLint at 1 h / half-life at 1 h: human, pH 7.4; for microsomal CLint at 1 h: read-out: microsomal stability Clint (intrinsic clearance); for half-life at 1 h: read-out: microsomal stability t1/2
Procedure: The human microsomal stability of selected compounds was evaluated by following a previously described method.[31] The human microsomes employed were purchased from Tebu-Xenotech. The compound was incubated with the microsomes at 37 °C in a 50 mM phosphate buffer (pH = 7.4) containing 3 mM MgCl2, 1 mM NADP, 10 mM glucose-6-phosphate, and 1 U/mL glucose-6-phosphate-dehydrogenase. Samples (75 μL) were taken from each well at 0, 10, 20, 40, and 60 min and transferred to a plate containing 4 °C 75 μL acetonitrile and 30 μL of 0.5% formic acid in water was added for improving the chromatographic conditions. The plate was centrifuged (46,000 g, 30 min), and supernatants were taken and analyzed in a UPLC-MS/MS (Xevo TQD, Waters) by employing a BEH C18 column and an isocratic gradient of 0.1% formic acid in water:0.1% formic acid acetonitrile (60:40). The metabolic stability of the compounds was calculated from the logarithm of the remaining compounds at each of the time point studied.

[11] = biological target: T5, CYP3A4 (Homo sapiens, UniProt P08684); test: CYP3A4 inhibition (fluorescence, substrates DBF or 7-BFC); format: biochemical; conditions: for IC50: IC50 obtained by extrapolation with analysis software
T5 construct: host or cells: insect cell microsomes
T5 sequence (P08684 whole entry): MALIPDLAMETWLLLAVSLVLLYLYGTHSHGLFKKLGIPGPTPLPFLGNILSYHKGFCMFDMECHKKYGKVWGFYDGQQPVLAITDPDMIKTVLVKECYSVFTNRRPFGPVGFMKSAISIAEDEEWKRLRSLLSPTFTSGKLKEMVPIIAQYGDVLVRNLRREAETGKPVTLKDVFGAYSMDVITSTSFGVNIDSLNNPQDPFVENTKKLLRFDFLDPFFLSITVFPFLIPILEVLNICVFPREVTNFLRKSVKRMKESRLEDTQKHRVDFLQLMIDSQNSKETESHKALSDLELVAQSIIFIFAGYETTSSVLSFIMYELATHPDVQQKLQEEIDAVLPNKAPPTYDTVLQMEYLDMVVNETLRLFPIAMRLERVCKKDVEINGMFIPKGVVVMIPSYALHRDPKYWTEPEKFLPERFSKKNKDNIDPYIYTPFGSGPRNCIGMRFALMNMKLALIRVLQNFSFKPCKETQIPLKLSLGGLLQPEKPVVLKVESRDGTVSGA
Procedure: To identify potential metabolic liabilities within the series here documented, the selected A2BAR antagonists were tested in vitro for CYP3A4 inhibitory activity.
The inhibitory activity of selected compounds was evaluated by following a previously described method.[31] […] The plate was then pre-incubated at 37 °C for 5 min and the reaction initiated by the addition of a pre-warmed enzyme/substrate (E/S) mix. The E/S mix contained buffer (KH2PO4), c-DNA-expressed P450 in insect cell microsomes, substrate (DBF: dibenzylfluorescein or 7-BFC: 7-benzyloxy-4-trifluoromethyl-coumarin) and other components to give the final assay concentrations in a reaction volume of 200 μL. Reactions were terminated after various times (a specific time for each cytochrome) by addition of STOP solution (ACN/Tris–HCl 0.5 M 80:20, and NaOH 2 N for CYP3A4). Fluorescence per well was measured using a fluorescence plate reader (Tecan Infinite M1000 PRO), and percentage of inhibition was calculated. In silico predictions were performed using free web-based models (FAME 3, SmartCYP, and Xenosite).[62]−[64]

[12] = substrate 7-benzyloxy-4-trifluoromethyl-coumarin

Structure (SMILES)	Exp. dG [1]	Ki [1]	% at 1 μM hA1 (percentage displacement of specific binding) [2]	% at 1 μM hA2A (percentage displacement of specific binding) [3]	% at 1 μM hA3 (percentage displacement of specific binding) [4]	other results
CCOC(=O)C1=C(C)Nc2nc3ccccc3n2C1c1ccoc1 (stereo not drawn) [III]	-10.48	–	7%	11%	1%	–
CC1=C(C(=O)OC(C)C)C(c2ccsc2)n2c(nc3ccccc32)N1 (stereo not drawn) [VIII]	-10.27	–	11%	3%	21%	–
CCOC(=O)C1=C(C)Nc2nc3ccccc3n2C1c1cccs1 (stereo not drawn) [V]	–	–	8%	16%	1%	–
CCOC(=O)C1=C(C)Nc2nc3ccccc3n2C1c1ccsc1 (stereo not drawn) [VII]	-10.26	–	3%	10%	2%	–

More lines, main results first:

Exp. dG [1]	Ki [1]	Structure (SMILES)	% at 1 μM hA1 (percentage displacement of specific binding) [2]	% at 1 μM hA2A (percentage displacement of specific binding) [3]	% at 1 μM hA3 (percentage displacement of specific binding) [4]	other results
-10.8	–	CCOC(=O)C1=C(C)Nc2nc3ccccc3n2C1c1ccco1 (stereo not drawn) [I]	5%	14%	1%	Ki [5]: 12 nM
-11.53	3.49 ± 0.2 nM	CC1=C(C(=O)OC(C)C)C(c2ccco2)n2c(nc3ccccc32)N1 (stereo not drawn) [II, reference compound]	20%	28%	2%	% at 1 μM hA1 (percentage displacement of specific binding) ([6]; listed as (±)-ISAM-140): 20%; % at 1 μM hA1 (percentage displacement of specific binding) ([6]; listed as ISAM-140): 14%; % at 1 μM hA2A (percentage displacement of specific binding) ([7]; listed as (±)-ISAM-140): 28%; % at 1 μM hA2A (percentage displacement of specific binding) ([7]; listed as ISAM-140): 7%; % at 1 μM hA2B (percentage displacement of specific binding) ([1]; 1 μM, [3H]DPCPX, human HEK-293 cells, n = 2): 17%; % at 1 μM hA3 (percentage displacement of specific binding) ([8]; listed as (±)-ISAM-140): 2%; % at 1 μM hA3 (percentage displacement of specific binding) ([8]; listed as ISAM-140): 3%; Ki [5]: 3.49 nM
-8.767	–	CC1=C(C(=O)OC(C)C)C(c2cccs2)n2c(nc3ccccc32)N1 (stereo not drawn) [VI]	1%	17%	3%	–
–	11.9 ± 1.1 nM	CC1=C(C(=O)OC(C)C)C(c2ccco2)n2c(nc3cc(F)c(F)cc32)N1 (stereo not drawn) [14b]	–	–	–	% at 1 μM hA1 (percentage displacement of specific binding) [6]: 13%; % at 1 μM hA2A (percentage displacement of specific binding) [7]: 22%; % at 1 μM hA3 (percentage displacement of specific binding) [8]: 14%; solubility at 4 h [9]: 62 µM (≈ 23.1 µg/mL); microsomal stability percent (percentage remanent) [10]: 20.97%; microsomal CLint at 1 h [10]: 21.6 µL/min/mg; half-life at 1 h [10]: 28.9 min; CYP3A4 % inh. at 10 μM, 7-BFC [11, 12]: 58%; CYP3A4 % inh. at 10 μM, DBF ([11]; substrate dibenzylfluorescein): 39%
-10.03	44.3 ± 1.4 nM	CC1=C(C(=O)OC(C)C)C(c2ccco2)n2c(nc3ccc(Cl)cc32)N1 (stereo not drawn) [15j]	–	–	–	Ki ([6]; displacement of specific [3H]DPCPX binding in human CHO cells, n = 3, read-out: Ki hA1): 667 ± 12 nM; % at 1 μM hA2A (percentage displacement of specific binding) [7]: 17%; % at 1 μM hA3 (percentage displacement of specific binding) [8]: 5%; solubility at 4 h [9]: 58.2 µM (≈ 21.6 µg/mL); microsomal stability percent (percentage remanent) [10]: 16.83%; microsomal CLint at 1 h [10]: 26.4 µL/min/mg; half-life at 1 h [10]: 21.1 min; CYP3A4 % inh. at 10 μM, 7-BFC [11, 12]: 11%; CYP3A4 % inh. at 10 μM, DBF ([11]; substrate dibenzylfluorescein): 47%; IC50 ([11]; substrate 7-benzyloxy-4-trifluoromethyl-coumarin, read-out: CYP3A4 IC50, 7-BFC): > 10000 nM; IC50 ([11]; substrate dibenzylfluorescein, read-out: CYP3A4 IC50, DBF): > 10000 nM
